Each structure is given as a SMILES string. A value given as a limit tells only on which side of the number the result lay.

Assay type in all cases: cell-based
In one assay the test system is NCI-H2052. The experiment in a line: Mesothelioma cell line proliferation assay (NCI-H2052). The conditions noted are these: Homo sapiens, 144 h; NCI-H2052 cells; 6 days with compound; cell viability by ATPlite. As to the method: (§1) Mesothelioma cell lines, NCI-H226 and NCI-H2052 (all sourced from the ATCC cell culture collection) are plated in 96-well plates (Corning® 96 Well White Polystyrene Microplate clear flat bottom, white polystyrene (TC-Treated)), at 1500 cells/well in full medium (RPMI 1640 ATCC modification with L-glutamine, HEPES, Phenol Red, Sodium Pyruvate, High glucose, Low sodium bicarbonate and 10% fetal bovine serum). Cells are incubated overnight at 37° C. in an incubator with 5% CO2. Then compounds, dissolved in DMSO, are added in dose-response. Cells are incubated with compound dilutions for another 6 days at 37° C. in an incubator with 5% CO2. Cell viability is quantitated using the ATPlite kit (Perkin-Elmer) and the luminescence is read-out using an Envision instrument (Perkin-Elmer). The amount of relative light units produced using the ATPlite kit is used to calculated percent of inhibition.
(§2) The activities of some example compounds are depicted in Table 9. The activity ranges A, B and C refer to EC50 values in the mesothelioma cell line proliferation assay as described as follows: “A”: EC50<1 μM; “B”: 1 μM≤EC50≤10 μM and “C”: EC50>10 μM; NT: not tested.

Another assay deals with NCI-H226. The assay can be described thus: Mesothelioma cell line proliferation assay (NCI-H226). The conditions noted are these: Homo sapiens, 144 h; NCI-H226 cells; 6 days with compound; cell viability by ATPlite. The procedure:
as §1, §2

Assay [1] relates to YAP/TAZ-TEAD transcription. The experiment in a line: Reporter gene assay for measuring the inhibition of YAP/TAZ-TEAD transcription. The conditions noted are these: Homo sapiens, HEK-293T; Hek293T cells transiently transfected with TEAD-responsive element luciferase reporter; 24 hours incubation. The procedure: Hek293T cells are cultured in DMEM supplemented with 10% fetal bovine serum, Sodium pyruvate, Sodium bicarbonate, L-glutamine. The cells are harvested and transiently transfected with TEAD-responsive element luciferase reporter. Transfected cells are plated in 384-wells plate containing pre-diluted compounds. After 24 hours incubation at 37° C./5% CO2, assay plates were cooled down to RT and levelled to an equal volume per well, prior to the addition of 25 uL luciferase substrate SteadyLite (Perkin Elmer)/well. The plate was shaken for 10 min at 600 rpm, centrifuged for 1 min at 500 rpm and measured with an Envision reader (PerkinElmer). The amount of relative light units produced by the TEAD reporter is used to calculated percent of inhibition.
The percent of reporter inhibition was calculated in the presence of a positive control inhibitor (100% inhibition) versus a condition with the presence of the vehicle basal activity of the reporter (0% inhibition). The ability of a test compound to inhibit this activity was determined as: Percentage inhibition=[1−((RLU determined in the presence of vehicle−RLU determined for sample with test compound present) divided by (RLU determined in the presence of vehicle−RLU determined for sample with positive control inhibitor))]*100 The activities of example compounds tested are depicted in Table 8. The activity ranges A, B and C refer to IC50 values in the reporter gene assay as follows: “A”: EC50<1 μM; “B”: 1 μM≤EC50≤3.0 μM and “C”: EC50>3.0 μM, NT=not tested.

`C=CC(=O)N1CCc2c(nc(-c3ccc(C(F)(F)F)cc3)nc2-c2ccn(CCOC)n2)C1` [Cpd. No. 73, 1-(4-(1-(2-methoxyethyl)-1H-pyrazol-3-yl)-2-(4-(trifluoromethyl)phenyl)-5,8-dihydropyrido[3,4-d]pyrimidin-7(6H)-yl)prop-2-en-1-one]: the EC50 was 1000 to 10000 nM in the assay with NCI-H2052, under 1000 nM in the assay with NCI-H226 and under 1000 nM in assay [1].
Regarding `C=CC(=O)N1CCc2c(nc(-c3ccc(F)cc3)nc2-c2ccn(C)n2)C1` [Cpd. No. 51, 1-(2-(4-fluorophenyl)-4-(1-methyl-1H-pyrazol-3-yl)-5,8-dihydropyrido[3,4-d]pyrimidin-7(6H)-yl)prop-2-en-1-one], the EC50 with NCI-H2052 is over 10000 nM; in the assay with NCI-H226 it was under 1000 nM; in assay [1], under 1000 nM.
Take `C=CC(=O)N1CCc2c(nc(-c3ccc(F)c(F)c3)nc2-c2ccn(C)n2)C1` [Cpd. No. 53, 1-(2-(3,4-difluorophenyl)-4-(1-methyl-1H-pyrazol-3-yl)-5,8-dihydropyrido[3,4-d]pyrimidin-7(6H)-yl)prop-2-en-1-one]: the EC50 is 1000 to 10000 nM in the assay on NCI-H2052, under 1000 nM in the assay with NCI-H226 and under 1000 nM in assay [1].
Regarding `C=CC(=O)N1CCc2c(nc(-c3cccc(C(F)(F)F)c3)nc2-c2ccn(C)n2)C1` [Cpd. No. 55, 1-(4-(1-methyl-1H-pyrazol-3-yl)-2-(3-(trifluoromethyl)phenyl)-5,8-dihydropyrido[3,4-d]pyrimidin-7(6H)-yl)prop-2-en-1-one], the figures for the half-maximal effective concentration (EC50) (in the assay on NCI-H2052; in the assay with NCI-H226; in assay [1]) were 1000 to 10000 nM, under 1000 nM and under 1000 nM, respectively.
For the molecule `CC#CC(=O)N1CCc2c(nc(C3CCC(F)(F)CC3)nc2-c2ccn(C)n2)C1` [Cpd. No. 94, 1-(2-(4,4-difluorocyclohexyl)-4-(1-methyl-1H-pyrazol-3-yl)-5,8-dihydropyrido[3,4-d]pyrimidin-7(6H)-yl)but-2-yn-1-one], the 50% effective concentration (EC50) in the assay on NCI-H2052 was over 10000 nM; in the assay with NCI-H226, under 1000 nM; in assay [1], under 1000 nM.
Turning to `C=CC(=O)N1CCc2c(nc(Cc3ccc(C(F)(F)F)cc3)nc2-c2ccn(Cc3cccnc3)n2)C1` [Cpd. No. 49, 1-(4-(1-(pyridin-3-ylmethyl)-1H-pyrazol-3-yl)-2-(4-(trifluoromethyl)benzyl)-5,8-dihydropyrido[3,4-d]pyrimidin-7(6H)-yl)prop-2-en-1-one], the EC50 was over 10000 nM in the assay with NCI-H2052, under 1000 nM in the assay on NCI-H226 and under 1000 nM in assay [1].
As to `C=CC(=O)N1CCc2c(nc(-c3cccc(F)c3)nc2-c2ccn(C)n2)C1` [Cpd. No. 52, 1-(2-(3-fluorophenyl)-4-(1-methyl-1H-pyrazol-3-yl)-5,8-dihydropyrido[3,4-d]pyrimidin-7(6H)-yl)prop-2-en-1-one], the figures for the EC50 (in the assay on NCI-H2052; in the assay with NCI-H226; in assay [1]) were 1000 to 10000 nM, under 1000 nM and under 1000 nM, respectively.
As to `C=CC(=O)N1CCc2c(nc(Cc3ccccc3)nc2-c2ccn(C)n2)C1` [Cpd. No. 32, 1-(2-benzyl-4-(1-methyl-1H-pyrazol-3-yl)-5,8-dihydropyrido[3,4-d]pyrimidin-7(6H)-yl)prop-2-en-1-one], the EC50 (in the assay on NCI-H2052; with NCI-H226; in assay [1]) was under 1000 nM each time.
Take `C=CC(=O)N1CCc2c(nc(-c3ccccc3)nc2-c2ccn(C(F)F)n2)C1` [Cpd. No. 65, 1-(4-(1-(difluoromethyl)-1H-pyrazol-3-yl)-2-phenyl-5,8-dihydropyrido[3,4-d]pyrimidin-7(6H)-yl)prop-2-en-1-one]: the 50% effective concentration (EC50) in the assay with NCI-H2052 is 1000 to 10000 nM; in the assay on NCI-H226, 1000 to 10000 nM; in assay [1] it was under 1000 nM.
`C=CC(=O)N1CCc2c(nc(-c3ccc(C(F)(F)F)cc3)nc2-c2ccn(C(F)F)n2)C1` [Cpd. No. 69, 1-(4-(1-(difluoromethyl)-1H-pyrazol-3-yl)-2-(4-(trifluoromethyl)phenyl)-5,8-dihydropyrido[3,4-d]pyrimidin-7(6H)-yl)prop-2-en-1-one]: the figures for the EC50 (in the assay with NCI-H2052; in the assay with NCI-H226; in assay [1]) were 1000 to 10000 nM, under 1000 nM and under 1000 nM, respectively.
As for `C=CC(=O)N1CCc2c(nc(Cc3cccc(C(F)(F)F)c3)nc2-c2ccn(C)n2)C1` [Cpd. No. 46, 1-(4-(1-methyl-1H-pyrazol-3-yl)-2-(3-(trifluoromethyl)benzyl)-5,8-dihydropyrido[3,4-d]pyrimidin-7(6H)-yl)prop-2-en-1-one], the EC50 in the assay with NCI-H2052 was 1000 to 10000 nM; in the assay on NCI-H226, under 1000 nM; in assay [1], under 1000 nM.
`Cn1ccc(-c2nc(-c3ccc(C(F)(F)F)cc3)nc3c2CCN(C(=O)C2CO2)C3)n1` (centres unmarked) [Cpd. No. 88, (4-(1-methyl-1H-pyrazol-3-yl)-2-(4-(trifluoromethyl)phenyl)-5,8-dihydropyrido[3,4-d]pyrimidin-7(6H)-yl)(oxiran-2-yl)methanone]: the EC50 is 1000 to 10000 nM in the assay on NCI-H2052, under 1000 nM with NCI-H226 and under 1000 nM in assay [1].
Consider `C=CC(=O)N1CCc2c(nc(-c3ccc(C(F)(F)F)cc3)nc2-c2cnn(C)n2)C1` [Cpd. No. 92, 1-(4-(2-methyl-2H-1,2,3-triazol-4-yl)-2-(4-(trifluoromethyl)phenyl)-5,8-dihydropyrido[3,4-d]pyrimidin-7(6H)-yl)prop-2-en-1-one], for which the values for the concentration giving a half-maximal response (EC50) (in the assay on NCI-H2052; in the assay on NCI-H226; in assay [1]) were 1000 to 10000 nM, under 1000 nM and under 1000 nM, respectively.
`CCC(=O)N1CCc2c(nc(C3CCC(F)(F)CC3)nc2-c2ccn(C)n2)C1` [Cpd. No. 90, 1-(2-(4,4-difluorocyclohexyl)-4-(1-methyl-1H-pyrazol-3-yl)-5,8-dihydropyrido[3,4-d]pyrimidin-7(6H)-yl)propan-1-one]: the EC50 in the assay with NCI-H2052 was over 10000 nM; in the assay with NCI-H226, over 10000 nM; in assay [1] it was 1000 to 3000 nM.
The molecule `O=S(=O)(F)CCN1Cc2nc(-c3ccccc3)nc(-c3ccn(Cc4cccnc4)n3)c2C1` [Cpd. No. 29, 2-(2-phenyl-4-(1-(pyridin-3-ylmethyl)-1H-pyrazol-3-yl)-5,7-dihydro-6H-pyrrolo[3,4-d]pyrimidin-6-yl)ethane-1-sulfonyl fluoride] gave an EC50 in assay [1] of over 3000 nM.
For `C=CC(=O)NC1CCc2c(nc(-c3ccccc3)nc2-c2ccn(C)n2)C1` (centres unmarked) [Cpd. No. 6, N-(4-(1-methyl-1H-pyrazol-3-yl)-2-phenyl-5,6,7,8-tetrahydroquinazolin-7-yl)acrylamide], the EC50 in assay [1] was over 3000 nM.
Consider `CCC(=O)N1CCc2c(nc(Cc3ccccc3)nc2-c2ccn(C)n2)C1` [Cpd. No. 33, 1-(2-benzyl-4-(1-methyl-1H-pyrazol-3-yl)-5,8-dihydropyrido[3,4-d]pyrimidin-7(6H)-yl)propan-1-one], for which the EC50 in assay [1] was over 3000 nM.
`CCC(=O)N1Cc2nc(-c3ccccc3)nc(-c3ccn(Cc4cccnc4)n3)c2C1` [Cpd. No. 24, 1-(2-phenyl-4-(1-(pyridin-3-ylmethyl)-1H-pyrazol-3-yl)-5,7-dihydro-6H-pyrrolo[3,4-d]pyrimidin-6-yl)propan-1-one] yielded an EC50 in assay [1] of 1000 to 3000 nM.
On to `Cn1ccc(-c2nc(-c3ccccc3)nc3c2CC(NS(C)(=O)=O)CC3)n1` (centres unmarked) [Cpd. No. 4, N-(4-(1-methyl-1H-pyrazol-3-yl)-2-phenyl-5,6,7,8-tetrahydroquinazolin-6-yl)methanesulfonamide], for which the 50% effective concentration (EC50) in assay [1] was over 3000 nM.
`CNS(=O)(=O)CCN1Cc2nc(-c3ccccc3)nc(-c3ccn(Cc4cccnc4)n3)c2C1` [Cpd. No. 31, N-methyl-2-(2-phenyl-4-(1-(pyridin-3-ylmethyl)-1H-pyrazol-3-yl)-5,7-dihydro-6H-pyrrolo[3,4-d]pyrimidin-6-yl)ethane-1-sulfonamide] showed an EC50 in assay [1] of 1000 to 3000 nM.
Molecule `C=CC(=O)N1CCc2c(nc(-c3ccc(C(F)(F)F)cc3)nc2-c2ccn(Cc3cccnc3)n2)C1` [Cpd. No. 72, 1-(4-(1-(pyridin-3-ylmethyl)-1H-pyrazol-3-yl)-2-(4-(trifluoromethyl)phenyl)-5,8-dihydropyrido[3,4-d]pyrimidin-7(6H)-yl)prop-2-en-1-one] had an EC50 in assay [1] of under 1000 nM.
Regarding `CCC(=O)NC1CCc2nc(-c3ccccc3)nc(-c3ccn(Cc4cccnc4)n3)c2C1` (centres unmarked) [Cpd. No. 10, N-(2-phenyl-4-(1-(pyridin-3-ylmethyl)-1H-pyrazol-3-yl)-5,6,7,8-tetrahydroquinazolin-6-yl)propionamide], the EC50 in assay [1] was over 3000 nM.

These data come from US12516064B2, “Tetrahydropyridopyrimidines and related analogs for inhibiting YAP/TAZ-TEAD” (THE KATHOLIEKE UNIVERSITEIT LEUVEN, priority 2022, dated 2026).
